For one data set, the system named is CsOMT21. In words: O-methyltransferase enzyme assay with recombinant CsOMT21. Format: biochemical, Cannabis sativa. Conditions: 1 mM substrate, [14C]-SAM, 30 min at 37° C.
The next data set concerns CsOMT6. Briefly: O-methyltransferase enzyme assay with recombinant CsOMT6. Format: biochemical, Cannabis sativa. Conditions: 1 mM substrate, [14C]-SAM, 30 min at 37° C.
The next data set deals with CsOMT1. In words: O-methyltransferase enzyme assay with recombinant CsOMT1. The class given is biochemical, Cannabis sativa. Conditions: compound as substrate, 1 mM, [14C]-SAM methyl donor, relative to dihydroresveratrol.
The test system of data set [1] is human leukemia cell line HL60. Particulars: cited from earlier work.
Data set [2] relates to colon cancer cell line SW480. Conditions: cited from earlier work.
The next data set relates to sarcoma S-180. Particulars: cited from earlier work.
Substrate in data set [3]: Oc1ccc(CCc2cc(O)cc(O)c2)cc1
In words: Enzyme kinetics (Michaelis-Menten) of recombinant CsOMT1 O-methyltransferase with dihydroresveratrol as substrate (FIG. 6C). Conditions: other: substrate dihydroresveratrol, standard assay conditions (50 mM Tris-HCl, pH 7.5, 5 mM MgCl2, 10% glycerol, 37° C, [14C]-SAM methyl donor), non-linear regression, Michaelis-M. The class given is biochemical, Cannabis sativa. On the procedure:
FIG. 6. Enzymatic methylation activity of CsOMT1. (A) Reaction catalyzed by CsOMT1. (B) Representative chromatogram showing the reaction products resolved by HPLC that illustrates the separation of the methylated dihydroresveratrol from its corresponding substrate (dihydroresveratrol, DHR). The identity of 3-O-methyl-dihydroresveratrol (pinobistilbene) was structurally determined by NMR. (C) Kinetic analysis of CsOMT1. Recombinant CsOMT1 was assayed under standard assay conditions at the indicated concentrations of dihydroresveratrol. Kinetic parameters were determined by non-linear regression analysis using the Michaelis-Menten kinetics model of the SigmaPlot 12.3 software.
Expression of recombinant prenyltransferases in E. coli. In typical aspects, open reading frames encoding soluble aromatic prenyltransferases from bacteria or fungi, for example NphB, HypSC, CloQ, NovQ, Fur7, or PpzP are synthesized commercially. […]
Recombinant protein expression of CsOMTs in E. coli. Open reading frames corresponding to O-methyltransferases from C. sativa are synthesized by commercially. […]
O-methyltransferase enzyme assays. […] The enzymatic products are extracted with four volumes of ethyl acetate and quantified using a scintillation counter. […] The eluted products are detected by absorption at the 210-350 nm range and quantified relative to authentic standards. […]

Read-outs that look alike come from different tables or passages of the source.

As for `O=c1c(O)c(-c2ccc(O)c(O)c2)oc2cc(O)cc(O)c12` [quercetin], the methylation of substrate entry in the data set with CsOMT21 is reported as “able to methylate”; with CsOMT6 it was “preferred methylation”. As to `COc1cc(O)cc(CCc2cccc(O)c2)c1` [batatasin III], the “O-methyltransferase activity relative to that with DHR” value in the data set on CsOMT1 was “about 25%”.

In the case of `CC(C)=CCc1cc(/C=C/C(=O)O)cc(CC=C(C)C)c1O` [artepillin C], the apoptotic events result in data set [1] and in data set [2] was “induce apoptotic events” each time. In the data set on sarcoma S-180 (mouse, in vivo, po), the tumor growth entry is on record as “significant reduction in tumor growth”. For `O=c1cc(-c2ccc(O)c(O)c2)oc2cc(O)cc(O)c12` [luteolin], the methylation of substrate result in the data set with CsOMT21 is “able to methylate”.

Regarding `CC(C)=CCc1cc(/C=C/C(=O)O)ccc1O` [drupanin], the apoptotic events result in data set [1] (HL60 (Akao et al 2008)) and in data set [2] (SW480 (Akao et al 2008)) was “induce apoptotic events” throughout. Besides, the tumor growth result in the data set with sarcoma S-180 (oral administration, mice with sarcoma S-180 (Mishima et al 2005)) was “significant reduction in tumor growth”.

B1: CsOMT1 (recombinant O-methyltransferase, SEQ ID NO: 7, PK03555; 6×His-tagged, expressed in E. coli) (Cannabis sativa) (protein)
chain: MEADGEDAVLRGQVEIWKYMLSFADSMALKCAVELQLADIIHSHTSPITLSQIASAIPGATSPDLSCLARIMRLLVRRRIFTQHQKPKSDGEEEEALYGPTHSSRWLLTKTNDHDQLTLAPMILMENDPRLMAPWHCFSRCVKEGGVAFKKAHNGQSIWEFGAENPEINKLFNDAMECTAKVVMKAILSHYSDGGFSDIKSMVDVGGGTGGSISEIVRSYPHIKGINFDLPHVIATAPPYSGVSHVGGDMFRSVPTADAIFMKWILHDWSDEDCVKILKNCRKAIAEESGKVIIVESVLEEESNNNNNNNEVFGDTALMLDLVMVAHTTGGKERTQKQWKTILEQGGFPRYNFIKIKALPSIIEAYPN
The Km is the concentration of substrate that gives half-maximal velocity. For the molecule B1, in data set [3], the Km is on record as 22.2 ± 4.6 µM.

These data come from patent US20240026314A1, “POLYPEPTIDES FOR USE IN THE SYNTHESIS OF BIOACTIVE PHENOLIC COMPOUNDS” (priority 2020, published 2024).
